Drawing on the METLIN SMRT retention time set (Domingo-Almenara et al. 2019), this text covers RP-LC retention time for 60 compounds.

Molecules are shown by their SMILES.

This data set is described as follows: gradient 5% acetonitrile 3 min, to 50% in 2 min, to 85% in 15 min, held 3 min, 100 µL/min. The conditions noted are these: column: Zorbax Extend-C18 2.1 x 50 mm; eluents: water / acetonitrile, 0.1% formic acid. Put shortly: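 Using water and acetonitrile that each contained 0.1% formic acid, mixtures of ~100 pure standards were separated at 100 μL/min on a Zorbax Extend-C18 column (2.1 × 50 mm, 1.8 μm). The HPLC fed a quadrupole time-of-flight mass spectrometer working in positive and negative ionization mode, with dead and dwell volumes of 40 μL and 900 μL. Data were acquired over 3 months. Retention time was read from computationally picked adduct peaks after manual inspection of each.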
For the compound `CC(=O)Nc1ccc(-n2cnc(C(=O)N3CCN(c4ccc(C)cc4)CC3)c2)nc1`, the RP-LC retention time is 682 s.
With `COCc1c(C(=O)O)nnn1-c1ccc2c(c1)OCO2` the figure was 648 s; with `CCn1c(C)c(CCC(=O)NC(C)C)c(=O)n2nc(-c3ccccc3)nc12`, 706 s.
With `O=C(Cn1cccc1-c1nnc(-c2ccccc2)o1)NCc1cccs1` the figure was 854 s.
Under `Cc1[nH]c(C(=O)N2CCN(c3ccccc3F)CC2)c(C)c1S(=O)(=O)N1CCOCC1` stands 793 s; under `CCNc1cc(N2CCCC(CCC(=O)NC(C)c3c(C)nn(C)c3C)C2)ncn1` (stereo not given), 582 s; under `CCCn1nc2ccc(S(=O)(=O)N3CCOCC3)cn2c1=O`, 696 s.
Compound `Cc1ccc(C)c(NS(=O)(=O)c2cc3n(c2)CCN(C)C3=O)c1` registered an RP-LC retention time of 707 s.
With `Cc1nn2c(CNC(=O)c3ccccn3)c(-c3ccccc3)nc2s1` the figure was 796 s.
With `CCn1cc(-c2ccc(Cl)cc2)cc1C(=O)N1CCN(C(C)C)CC1`, the RP-LC retention time came out at 717 s.
Under `CC1C(=O)NCCN1C(=O)Cc1ccc2c(c1)OCO2` (stereo not given) stands 600 s; under `Cc1cc(N2CCN(C(=O)c3ccc(F)cc3Cl)CC2)nc(N2CCOCC2)n1`, 637 s; under `Cc1ccccc1CNS(=O)(=O)c1c[nH]c2ncccc12`, 730 s.
With `CSc1ccc(-c2nc3cnccn3c2Nc2ccc3c(c2)OCO3)cc1` the figure was 890 s.
With `CCOc1ccccc1NC(=O)N1c2ccccc2CC1c1nc(C2CC2)no1` (stereo not given) the figure was 1180 s.
`CC(C(=O)Nc1cc(F)ccc1F)C1CCN(C(=O)Nc2ccccc2)CC1` (stereo not given) came in with an RP-LC retention time of 867 s.
With `O=C(CC1CCN(C(=O)c2ccccc2)CC1)N1CCN(c2ccccn2)CC1` the figure was 582 s; with `CCc1noc(NC(C)=O)c1-c1ccc(C)c(S(=O)(=O)Nc2cccc(C(F)(F)F)c2)c1`, 889 s; with `C=CCN1C(=O)C2(c3cc(Br)ccc31)c1[nH]c3ccccc3c1CCN2C(C)=O` (stereo not given), 929 s.
`N#Cc1ccc(N2C=C(C(=O)N3CCCCC3)S(=O)(=O)c3ccc(F)cc32)cc1` displayed an RP-LC retention time of 824 s.
Under `O=C(Nc1ccc2c(c1)OCCO2)c1cnc(-c2ccc(F)cc2)nc1-c1ccncc1` stands 831 s; under `CCCNC(=O)c1cn(-c2ccc(-c3nc(CC)no3)cn2)cn1`, 777 s.
Under `O=C(CN1CC(c2nc(-c3ncccn3)no2)C1)Nc1ccc(F)c(Cl)c1` stands 576 s; under `COc1cc(C(=O)N2CCC3(CC2)NC(=O)c2ccccc2N3C)cc(OC)c1OC`, 669 s.
Under `CC1CCN(C(=O)c2ccc3c(c2)N(CC(=O)N2CCCC2)C(=O)CO3)CC1` stands 703 s; under `CC(C)CC(=O)N1CC(c2nc(-c3ccccc3)no2)C2(CCOCC2)C1` (stereo not given), 896 s.
In turn, `Cc1ccccc1NC(=O)Cn1c(=O)n(-c2ccccc2)c(=O)c2c1cc(C)n2C` showed an RP-LC retention time of 806 s.
`Cc1oc(-c2[nH]ncc2C(=O)N2CCCC2)cc1S(=O)(=O)N(C)C` yielded an RP-LC retention time of 620 s.
Take `CCOC(=O)CCC(=O)N1CC(c2nc(C)no2)C1`: the RP-LC retention time came to 603 s.
With `COc1ccc(C2Cn3cnc(C(=O)N4CCC(C(=O)NC5CCCC5)CC4)c3CO2)cc1` (stereo not given) the figure was 705 s; with `O=C(Cc1ccccc1Br)NC1CCN(c2cc(-c3ccc(Cl)cc3)[nH]n2)C1` (stereo not given), 831 s.
With `Fc1ccc(F)c(-c2nc(-c3cccc(-c4ccn[nH]4)c3)no2)c1` the figure was 966 s.
Regarding `COCCN1CC2(CCCC2)N(Cc2ccc(C(C)C)cc2)CC1=O`, the RP-LC retention time is 690 s.
Compound `COCCCNc1ncc(C(=O)O)c(-c2ccccc2)n1` showed an RP-LC retention time of 804 s.
The compound `COc1ccc(-c2noc(C3CCCN3C(=O)c3cccc(F)c3)n2)cc1` (stereo not given) gave an RP-LC retention time of 946 s.
`CN1C(=O)c2cccn2CC1C(=O)Nc1ccccc1F` (stereo not given): the RP-LC retention time was determined as 673 s.
Regarding `CCCn1c(=O)c(N2CCC(NC(=O)Nc3cccc(C)c3)CC2)nc2ccccc21`, the RP-LC retention time worked out at 1030 s.
With `Cc1cnc(C(=O)N2CC(n3cc(COc4ccc(F)cc4)nn3)C2)cn1` the figure was 731 s.
With `CC1CCN(c2cc(-n3cnc(C(=O)N4CCSCC4)c3)ncn2)CC1` the figure was 719 s; with `Cc1ccn2cc(C(=O)N3CCN(c4cccc(Cl)c4)CC3)nc2c1`, 692 s.
Take `COc1cc(OC)c(NC(=O)COc2cc(C)nc(N3CCCCCC3)n2)cc1Cl`: the RP-LC retention time was determined as 659 s.
Under `Cc1ccc(/C=C/S(=O)(=O)N2CCN(c3ccc(-c4cccs4)nn3)CC2)cc1` stands 929 s.
With `CC(C)Oc1ccc(CNS(=O)(=O)c2cc(-c3nc(C(C)C)cs3)cs2)cc1` the figure was 1210 s.
As to `c1ccc(-c2noc(-c3cccnc3N3CCN(c4ccccc4)CC3)n2)cc1`, the RP-LC retention time was 1280 s.
With `COC(=O)c1ccc2c(=O)n(-c3cccc(OC)c3)c(N3CCN(c4ccccn4)CC3)nc2c1` the figure was 705 s; with `CN1CCN(C(c2cccnc2)c2c(NC(=O)c3ccco3)sc3c2CCCC3)CC1` (stereo not given), 611 s; with `COC(=O)c1ccccc1NC(=O)CCCn1c(=O)c2cccn2c2ccc(Br)cc21`, 1120 s.
For the compound `Cc1ccsc1C(=O)N1CCC2(CC1)CC(OCC1CC1)CCO2` (stereo not given), the RP-LC retention time was determined as 851 s.
In the case of `CC(=O)Nc1ccc(S(=O)(=O)N2CCC3(CC2)Nc2cc(F)ccc2-n2cccc23)cc1`, the RP-LC retention time came out at 967 s.
`O=c1c(S(=O)(=O)N2CCCCCC2)cccn1Cc1cc(F)cc(F)c1` registered an RP-LC retention time of 999 s.
As for `COc1ccc(Cl)cc1NC(=O)N1CCc2nc[nH]c2C1`, the RP-LC retention time came to 604 s.
For the compound `COCCOCc1nc(C2CCCN2C(=O)c2ccsc2)no1` (stereo not given), the RP-LC retention time stood at 679 s.
Under `CCc1nccn1Cc1nc(-c2cccc(OC)c2OC)no1` stands 605 s; under `CCOc1cc(C2NCCc3c2[nH]c2ccc(Cl)cc32)ccc1O` (stereo not given), 671 s; under `CCn1ccc(C(=O)Nc2cccc(OCc3nnc(-c4ccccc4)o3)c2)n1`, 891 s.
Compound `COCCN1C(=O)[C@H]2CN(Cc3cc(Cl)ccc3F)C[C@H]2C1=O` gave an RP-LC retention time of 696 s.
Under `Cc1ccc(-n2c(N3CCCC(C(=O)NCc4ccncc4)C3)nc3ccsc3c2=O)cc1` (stereo not given) stands 627 s; under `COc1ccc(Cl)cc1NC(=O)Cn1cccc(-c2nc(-c3ccc(OC)c(OC)c3)no2)c1=O`, 887 s.
With `CCOC(=O)c1[nH]c(C)c(CCC(=O)N2CCC(C(=O)NCc3ccc(SC)cc3)CC2)c1C` the figure was 815 s; with `Cc1[nH]nc(-c2ccc(S(=O)(=O)N3CCOCC3)o2)c1C`, 707 s.
